Source: patent publication US5693640A, “Pyridazino-indole derivatives” (Merck, Sharp & Dohme, Ltd., priority 1994, dated 1997)

Columns and labels:
[1] = target: T1, strychnine-insensitive site present on the NMDA receptor (Rattus norvegicus, UniProt P35439); assay: Displacement of 3H-L-689,560 binding, rat forebrain membranes; conditions: read-out: concentration required to displace 50% of the specific binding (IC50)
T1 construct: strychnine-insensitive site present on the NMDA receptor of rat forebrain membranes; from tissue; host or cells: rat forebrain membranes
From the text: (§1) The compounds useful in this invention potently and selectively block responses to NMDA and/or AMPA in a brain slice from rat cortex, and inhibit the binding of agonists and antagonists to the strychnine-insensitive site present on the NMDA receptor and/or AMPA binding to rat forebrain membranes.
The ability of test compounds to displace ^3 H-L-689,560 (trans-2-carboxy-5,7-dichloro-4-phenylaminocarbonylamino-1,2,3,4-tetrahydroquinoline) binding to the strychnine-insensitive site present on the NMDA receptor of rat forebrain membranes can be determined by the method of Grimwood et al., Proceedings of the British Pharmacological Society, July 1991, Abstract C78.

[2] = tested on: NMDA; assay: Cortical slice studies: responses to NMDA in rat cortical slice; conditions: calculated from righthand shift in the NMDA concentration-response curve, read-out: apparent equilibrium constant (Kb) in response to NMDA
From the text: as §1
The effects of compounds of use in the invention on responses to NMDA and AMPA can be assessed using the rat cortical slice as described by Wong et al., Proc. Natl. Acad. Sci. USA, 1986, 83, 7104. The apparent equilibrium constant (Kb) is calculated from the righthand shift in the NMDA or AMPA concentration-response curves produced by the compound under test.

IC50 [1]: < 50 µM
SMILES: O=c1[nH]n(-c2ccccc2)c(=O)c2c1[nH]c1ccccc12 [Example 1, 2-Phenylpyridazino[4,5-b]indole-1,4-dione]
Kb [2]: < 150 µM
